# Measured values reported in patent publication US11679114B2, “Progestogen-only oral contraception” (Navad Life Sciences Pte, priority 2021, dated 2023).
# “And” between values parts separate entries of the source, which are not always exact repeats. Identical values can stand only once.
# Key:
# Assay type in all cases: in vivo, human
# [1] = system: healthy, cyclic women; assay: Diameter of the largest follicle-like structure (FLS) by transvaginal ultrasonography
# Protocol: (§1) The tablets prepared in Example 1 were tested in a single-center, open-label, adaptive design study to evaluate the influence on hormonal and ovarian function and vaginal bleeding pattern of different higher dosages of LNG administered once daily for 28 days over two consecutive treatment cycles in healthy, cyclic women.
# (§2) Subjects started study medication intake on the first day of menstrual bleeding after the pre-treatment cycle. One tablet was taken orally, around the same time every morning, during 56 consecutive days. Study visits were planned every three (±1) days from treatment day 3 (±1) until 27 (±1) and from day 31 (±1) until day 55 (±1). At each visit the diameter of the largest follicle-like structure (FLS) and serum follicle-stimulating hormone (FSH), luteinizing hormone (LH), estradiol (E2) and P concentrations were measured.
# (§3) If ovulation was observed during treatment, the subsequent luteal phase was evaluated using the Landgren criterion, i.e. the luteal phase was considered adequate when P concentrations were >16 nmol/L during at least 5 days (Landgren et al., “Hormonal effects of the 300 μg norethisterone (NET) minipill. 1. Daily steroid levels in 43 subjects during a pretreatment cycle and during the second month of NET administration,” Contraception 1980; 21: pp. 87-113). TVUS measurements of the diameter of the largest FLS (mean of two directions) were performed using a Voluson E8 Expert device (GE Medical Systems). Serum FSH, LH, E2, P and SHBG concentrations were determined by validated chemiluminescent microparticle immunoassays (Abbott, Longford, Ireland). All pharmacodynamic parameters were evaluated descriptively.
# [2] = system: healthy, cyclic women; assay: Serum FSH, LH, estradiol (E2) and progesterone (P) concentrations during treatment
# Protocol: as §1, §2, §3
# [3] = system: healthy, cyclic women; assay: Serum SHBG concentrations
# Protocol: Serum SHBG concentrations were determined after ovulation in the pre-treatment cycle, on treatment day 55 (±1) and at the end-of-study examination. Multiple-dose PK parameters were investigated in approximately 15 subjects per dose group, 5 of them having a BMI≥30 kg/m^2. Blood samples for LNG determination were taken on treatment day 55 (±1) pre-dose and 0.5, 1, 2, 3, 4, 6 and 24 hours after dosing.
# as §3
# [4] = system: healthy, cyclic women; assay: Adverse events and tolerability
# Protocol: At every visit, the subjects were questioned for adverse events and use of concomitant medication. Safety laboratory and pregnancy tests were performed at regular intervals during the study. Physical examinations were performed at screening and end of study.
# [5] = LNG 0.095 mg per day, BMI < 30 kg/m^2, entire treatment period
# [6] = LNG 0.095 mg per day, BMI ≥ 30 kg/m^2, entire treatment period
# [7] = LNG 0.095 mg per day, entire treatment period
# [8] = LNG 0.095 mg per day, treatment period 1
# [9] = LNG 0.095 mg per day, treatment period 2
# [10] = LNG 0.115 mg per day, BMI < 30 kg/m^2, entire treatment period
# [11] = LNG 0.115 mg per day, BMI ≥ 30 kg/m^2, entire treatment period
# [12] = LNG 0.115 mg per day, entire treatment period
# [13] = LNG 0.115 mg per day, treatment period 1
# [14] = LNG 0.115 mg per day, treatment period 2
# [15] = LNG 0.135 mg per day, BMI < 30 kg/m^2, entire treatment period
# [16] = LNG 0.135 mg per day, BMI ≥ 30 kg/m^2, entire treatment period
# [17] = LNG 0.135 mg per day, entire treatment period
# [18] = LNG 0.135 mg per day, treatment period 1
# [19] = LNG 0.135 mg per day, treatment period 2
# [20] = LNG 0.095 mg per day, end of study (on average 22 days after last treatment)
# [21] = LNG 0.095 mg per day, treatment day 55 ± 1
# [22] = LNG 0.115 mg per day, end of study (on average 22 days after last treatment)
# [23] = LNG 0.115 mg per day, treatment day 55 ± 1
# [24] = LNG 0.135 mg per day, end of study (on average 22 days after last treatment)
# [25] = LNG 0.135 mg per day, treatment day 55 ± 1
structure (smiles),measurement,setting,value
"C#C[C@]1(O)CC[C@H]2[C@@H]3CCC4=CC(=O)CC[C@@H]4[C@H]3CC[C@@]21CC (racemic) [LNG, levonorgestrel]","Maximum FLS diameter, Mean ± SD",[1]; [5],22.5 ± 8.2 mm
same,"Maximum FLS diameter, Mean ± SD",[1]; [6],20.6 ± 6.9 mm
same,"Maximum FLS diameter, Mean ± SD",[1]; [7],22.1 ± 7.9 mm
same,"Maximum FLS diameter, Median",[1]; [7],22.5 mm
same,"Maximum FLS diameter, Mean ± SD",[1]; [8],20.0 ± 8.6 mm
same,"Maximum FLS diameter, Median",[1]; [8],20.6 mm
same,"Maximum FLS diameter, Mean ± SD",[1]; [9],20.5 ± 7.5 mm
same,"Maximum FLS diameter, Median",[1]; [9],20.2 mm
same,"Maximum FLS diameter, Mean ± SD",[1]; [10],19.8 ± 7.5 mm
same,"Maximum FLS diameter, Mean ± SD",[1]; [11],27.9 ± 4.4 mm
same,"Maximum FLS diameter, Mean ± SD",[1]; [12],21.4 ± 7.7 mm
same,"Maximum FLS diameter, Median",[1]; [12],20.8 mm
same,"Maximum FLS diameter, Mean ± SD",[1]; [13],20.4 ± 7.9 mm
same,"Maximum FLS diameter, Median",[1]; [13],20.3 mm
same,"Maximum FLS diameter, Mean ± SD",[1]; [14],19.9 ± 7.5 mm
same,"Maximum FLS diameter, Median",[1]; [14],20.8 mm
same,"Maximum FLS diameter, Mean ± SD",[1]; [15],18.4 ± 5.0 mm
same,"Maximum FLS diameter, Mean ± SD",[1]; [16],19.0 ± 7.1 mm
same,"Maximum FLS diameter, Mean ± SD",[1]; [17],18.5 ± 5.3 mm
same,"Maximum FLS diameter, Median",[1]; [17],18.1 mm
same,FLS diameter in one subject with possible abnormal ovulation,"[1]; LNG 0.135 mg per day, one subject (BMI 20.4 kg/m^2), treatment day 3",12.3 mm
same,"Maximum FLS diameter, Mean ± SD",[1]; [18],16.6 ± 5.7 mm
same,"Maximum FLS diameter, Median",[1]; [18],13.9 mm
same,"Maximum FLS diameter, Mean ± SD",[1]; [19],17.4 ± 5.0 mm
same,"Maximum FLS diameter, Median",[1]; [19],16.8 mm
same,LH peak in one of the ovulating subjects,[2]; LNG 0.095 mg per day,68.0 IU/L
same,"Maximum E2 concentration, Mean ± SD",[2]; [5],705 ± 537 pmol/L
same,"Mean E2 concentration, Mean ± SD",[2]; [5],253 ± 140 pmol/L
same,"Maximum E2 concentration, Mean ± SD",[2]; [6],484 ± 277 pmol/L
same,"Mean E2 concentration, Mean ± SD",[2]; [6],190 ± 72 pmol/L
same,"Maximum E2 concentration, Mean ± SD",[2]; [7],660 ± 500 pmol/L
same,"Maximum E2 concentration, Median",[2]; [7],580 pmol/L
same,"Mean E2 concentration, Mean ± SD",[2]; [7],241 pmol/L and 241 ± 130 pmol/L
same,"Mean E2 concentration, Median",[2]; [7],204 pmol/L
same,"Maximum E2 concentration, Mean ± SD",[2]; [8],595 ± 495 pmol/L
same,"Maximum E2 concentration, Median",[2]; [8],362 pmol/L
same,"Mean E2 concentration, Mean ± SD",[2]; [8],289 ± 195 pmol/L
same,"Mean E2 concentration, Median",[2]; [8],231 pmol/L
same,"Maximum E2 concentration, Mean ± SD",[2]; [9],384 ± 304 pmol/L
same,"Maximum E2 concentration, Median",[2]; [9],224 pmol/L
same,"Mean E2 concentration, Mean ± SD",[2]; [9],186 ± 97 pmol/L
same,"Mean E2 concentration, Median",[2]; [9],144 pmol/L
same,"Maximum E2 concentration, Mean ± SD",[2]; [10],611 ± 623 pmol/L
same,"Mean E2 concentration, Mean ± SD",[2]; [10],213 ± 160 pmol/L
same,"Maximum E2 concentration, Mean ± SD",[2]; [11],607 ± 116 pmol/L
same,"Mean E2 concentration, Mean ± SD",[2]; [11],242 ± 66 pmol/L
same,"Maximum E2 concentration, Mean ± SD",[2]; [12],610 ± 559 pmol/L
same,"Maximum E2 concentration, Median",[2]; [12],511 pmol/L
same,"Mean E2 concentration, Mean ± SD",[2]; [12],219 pmol/L and 219 ± 146 pmol/L
same,"Mean E2 concentration, Median",[2]; [12],186 pmol/L
same,"Maximum E2 concentration, Mean ± SD",[2]; [13],563 ± 551 pmol/L
same,"Maximum E2 concentration, Median",[2]; [13],481 pmol/L
same,"Mean E2 concentration, Mean ± SD",[2]; [13],269 ± 217 pmol/L
same,"Mean E2 concentration, Median",[2]; [13],244 pmol/L
same,"Maximum E2 concentration, Mean ± SD",[2]; [14],367 ± 278 pmol/L
same,"Maximum E2 concentration, Median",[2]; [14],215 pmol/L
same,"Mean E2 concentration, Mean ± SD",[2]; [14],170 ± 88 pmol/L
same,"Mean E2 concentration, Median",[2]; [14],146 pmol/L
same,"Maximum E2 concentration, Mean ± SD",[2]; [15],415 ± 244 pmol/L
same,"Mean E2 concentration, Mean ± SD",[2]; [15],178 ± 72 pmol/L
same,"Maximum E2 concentration, Mean ± SD",[2]; [16],421 ± 332 pmol/L
same,"Mean E2 concentration, Mean ± SD",[2]; [16],190 ± 87 pmol/L
same,"Maximum E2 concentration, Mean ± SD",[2]; [17],416 ± 256 pmol/L
same,"Maximum E2 concentration, Median",[2]; [17],279 pmol/L
same,"Mean E2 concentration, Mean ± SD",[2]; [17],180 pmol/L and 180 ± 73 pmol/L
same,"Mean E2 concentration, Median",[2]; [17],144 pmol/L
same,"Maximum E2 concentration, Mean ± SD",[2]; [18],369 ± 245 pmol/L
same,"Maximum E2 concentration, Median",[2]; [18],239 pmol/L
same,"Mean E2 concentration, Mean ± SD",[2]; [18],198 ± 100 pmol/L
same,"Mean E2 concentration, Median",[2]; [18],156 pmol/L
same,"Maximum E2 concentration, Mean ± SD",[2]; [19],302 ± 184 pmol/L
same,"Maximum E2 concentration, Median",[2]; [19],242 pmol/L
same,"Mean E2 concentration, Mean ± SD",[2]; [19],162 ± 62 pmol/L
same,"Mean E2 concentration, Median",[2]; [19],148 pmol/L
same,Subjects with mean E2 concentrations ≥110 pmol/L (30 pg/mL),"[2]; all dosages (0.095, 0.115, 0.135 mg per day)",80-90%
same,Mean E2 concentrations in all subjects,"[2]; all dosages, except in one subject in the 0.115 mg group, 73.4 pmol/L = 20 pg/mL",> 73.4 pmol/L
same,Individual P concentrations during treatment,"[2]; all groups, except 2 ovulating subjects (0.095 mg), the subject with abnormal ovulation (0.135 mg) and one other subject",below 5 nmol/L
same,Individual LH concentrations,"[2]; all groups, except for an LH peak in one ovulating subject in the 0.095 mg group",below 12.1 IU/L
same,Mean E2 concentrations in all LNG treatment groups,"[2]; all treatment groups, 110 pmol/L (30 pg/mL) = lower limit assumed not to lead to accelerated bone loss",above 110 pmol/L
same,Single P concentration in another subject,"[2]; first treatment visit, probably a residue from the pre-treatment cycle, dose group not stated",5.85 nmol/L
same,"SHBG, Mean ± SD",[3]; [20],49.9 ± 17.4 nmol/L
same,"SHBG, Median",[3]; [20],47.7 nmol/L
same,"SHBG, Mean ± SD",[3]; [21],27.7 ± 10.6 nmol/L
same,"SHBG, Median",[3]; [21],25.5 nmol/L
same,"SHBG, Mean ± SD",[3]; [22],48.1 ± 20.1 nmol/L
same,"SHBG, Median",[3]; [22],46.7 nmol/L
same,"SHBG, Mean ± SD",[3]; [23],23.9 ± 12.1 nmol/L
same,"SHBG, Median",[3]; [23],18.9 nmol/L
same,"SHBG, Mean ± SD",[3]; [24],58.6 ± 28.5 nmol/L
same,"SHBG, Median",[3]; [24],47.8 nmol/L
same,"SHBG, Mean ± SD",[3]; [25],24.0 ± 9.5 nmol/L
same,"SHBG, Median",[3]; [25],23.7 nmol/L
same,Suppression of SHBG concentrations,"[3]; all treatment groups, end of treatment period 2",approximately 60%
same,"n acne events, possibly IMP related","[4]; 0.095 mg LNG, n subjects 30",3
same,"n acne events, possibly IMP related","[4]; 0.115 mg LNG, n subjects 29",4
same,"n acne events, possibly IMP related","[4]; 0.135 mg LNG, n subjects 29",4
same,Tolerability of the study medication,"[4]; LNG 0.095, 0.115 or 0.135 mg per day for 56 days",well tolerated
